From patent US8557791B2, “Anti-tumor agent comprising cytidine derivative and carboplatin” (Taiho Pharmaceutical Co., Ltd., priority 2008, dated 2013)

Assays:
[1] = test system: human lung cancer strain LX-1; assay: Antitumor effect in nude mice with subcutaneously transplanted human lung cancer strain LX-1; assay type: in vivo, mouse; conditions: day 15, LX-1 s.c., i.v. days 1 and 8, ECyd 2 mg/kg, carboplatin 70 mg/kg; for RTV Mean ± SD (Relative Tumor Volume): male nude mice (BALB/cA jcl-nu); for IR (Inhibition Rate of tumor proliferation with respect to control): male nude mice
Description: A fragment (about 2×2 mm) of human lung cancer strain LX-1 was subcutaneously transplanted in the back of each of male nude mice (BALB/cA jcl-nu). When the average tumor volume (longer diameter (mm)×shorter diameter (mm)×shorter diameter (mm)×½) of these mice reached about 200 mm^3, the mice were divided into groups based on the tumor volume (8 mice in each group) (day 0).
Drug administration was started on the day following transplant (day 1). ECyd and carboplatin were administered to a mouse through the caudal vein at a dose of 2 mg/kg and 70 mg/kg, respectively, on days 1 and 8. Mice of a control group were not subjected to drug treatment.
On day 15, the ratio of tumor volume to that at the grouping (Relative Tumor Volume; RTV) was calculated. In addition, percent inhibition of tumor proliferation of a group with respect to the control group (Inhibition Rate (%); IR (%)) was calculated by equation 2.
From the tumor volume on day 15, enhancement in antitumor effect of the combined administration group with respect to the ECyd-only administration group and the carboplatin-only administration group was analyzed through the Student's t-test (both sides). The antitumor effect of the combined administration group with respect to either single administration group had significance value (p value) of less than 0.05, confirming that administration of ECyd and carboplatin in combination is statistically significant. IR (%)=[1−average tumor volume of treated group/average tumor volume of control group]×100 (Equation 2)

[2] = test system: human head and neck cancer strain OCC-1; assay: Survival of nude rats with subcutaneously transplanted human head and neck cancer strain OCC-1; assay type: in vivo, rat; conditions: carboplatin 40 mg/kg/day vs cisplatin 5 mg/kg/day as employed in the test
Description: Male nude rats (F344/N Jcl-rnu) were divided in terms of body weight into groups (14 rats in each group). To each rat, a fragment (about 2×2 mm) of human head and neck cancer strain OCC-1 was subcutaneously transplanted into the back (day 0). Drug administration was started on the day following transplant (day 1). ECyd was administered to a rat through the caudal vein at a dose of 0.3 mg/kg on days 1, 3, 5, 8, 10, and 12. Carboplatin was administered to a rat through the caudal vein at a dose of 30 mg/kg or 40 mg/kg on days 1 and 8. Cisplatin was administered to a rat through the caudal vein at a dose of 5 mg/kg on day 1. […] Rats of a control group were not subjected to drug treatment.
Thereafter, the survival (days) of each rat was checked, and the survival rate of each group was calculated by the following equation 1. FIGS. 1 to 3 are graphs showing survival rates; in each graph the horizontal axis represents days and the vertical axis represents survival rate. Survival rate (%)=(no. of surviving rats/no. of rats tested)×100 (Equation 1)

Row | Compound | RTV Mean ± SD (Relative Tumor Volume) [1] | IR (Inhibition Rate of tumor proliferation with respect to control) [1] | antitumor effect of the platinum agents compared with each other [2]
1 | C#C[C@@]1(O)[C@@H](CO)O[C@@H](n2ccc(N)nc2=O)[C@@H]1O [ECyd, 1-(3-C-Ethynyl-β-D-ribopentofuranosyl)cytosine] | 5.43 ± 1.51 | 43.8% | –
2 | N.N.[Cl][Pt][Cl] [cisplatin] | – | – | almost the same antitumor effect
3 | N.N.O=C([O-])C1(C(=O)[O-])CCC1.[Pt+2] [carboplatin, cis-diammine(1,1-cyclobutanedicarboxylato)platinum(II)] | 5.53 ± 1.75 | 42.8% | almost the same antitumor effect
